Results published in patent US20240270809A1, “ORAL GLP RECEPTOR AGONISTS” (priority 2020, published 2024).
Where two headings read alike, the source gives them in different places. Positions of bridges follow the written chain, without caps; N, C: chain ends. Non-standard residues stand in square brackets, D forms with d. Residues, ends and D or L forms follow the SMILES beside them. *: point of attachment. Malonyl(2,2-Me2,histaminyl) = CC(C)(C(=O)NCCc1cnc[nH]1)C(=O)*; Ala(1H-tetrazol-5-yl) = N[C@@H](Cc1nnn[nH]1)C(=O)O; Nle = CCCC[C@H](N)C(=O)O; Aib = CC(C)(N)C(=O)O

Legend:
Format in all cases: cell-based
human GLP1 receptor = molecular target: T1, human GLP1 receptor (Homo sapiens, UniProt P43220); test: cAMP accumulation assay, functional agonism of human GLP1 receptor; details: HEK cells infected with human GLP1 receptor BacMam virus, HTRF cAMP; for Emax: HEK293, read-out: Human GLP-1R agonist cAMP Emax; for EC50: read-out: Human GLP-1R agonist cAMP pEC50 (converted)
T1 construct: expressed in transfected cells; host or cells: HEK cells, BacMam virus transduction
T1 sequence (P43220 24-463): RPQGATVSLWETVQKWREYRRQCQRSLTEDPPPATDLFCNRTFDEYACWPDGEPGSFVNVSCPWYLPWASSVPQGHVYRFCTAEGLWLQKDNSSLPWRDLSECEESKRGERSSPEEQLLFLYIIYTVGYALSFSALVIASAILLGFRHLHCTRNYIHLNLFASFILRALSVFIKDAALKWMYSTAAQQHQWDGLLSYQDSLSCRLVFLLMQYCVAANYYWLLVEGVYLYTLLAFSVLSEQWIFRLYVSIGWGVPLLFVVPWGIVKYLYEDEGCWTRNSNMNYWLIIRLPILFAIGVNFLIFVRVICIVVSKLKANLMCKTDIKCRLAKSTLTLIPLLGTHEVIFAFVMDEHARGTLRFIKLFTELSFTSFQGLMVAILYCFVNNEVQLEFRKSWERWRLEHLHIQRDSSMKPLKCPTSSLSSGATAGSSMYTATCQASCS
How it was run: (§1)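 HEK cells transduced for 24 hours with human GLP2 or GLP1 receptor BacMam virus were frozen, then stimulated with agonist in HBSS containing 0.5 mM IBMX. After 45 min at 37° C, cAMP was measured by HTRF after adding detection reagents in lysis buffer.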

human GLP2 receptor = molecular target: T2, human GLP2 receptor (Homo sapiens, UniProt O95838); test: cAMP accumulation assay, functional agonism of human GLP2 receptor; details: HEK cells infected with human GLP2 receptor BacMam virus, HTRF cAMP; for Emax: HEK293, read-out: Human GLP-2R agonist cAMP Emax; for EC50: read-out: Human GLP-2R agonist cAMP pEC50 (converted)
T2 construct: expressed in transfected cells; host or cells: HEK cells, BacMam virus transduction
T2 sequence (O95838 1-553): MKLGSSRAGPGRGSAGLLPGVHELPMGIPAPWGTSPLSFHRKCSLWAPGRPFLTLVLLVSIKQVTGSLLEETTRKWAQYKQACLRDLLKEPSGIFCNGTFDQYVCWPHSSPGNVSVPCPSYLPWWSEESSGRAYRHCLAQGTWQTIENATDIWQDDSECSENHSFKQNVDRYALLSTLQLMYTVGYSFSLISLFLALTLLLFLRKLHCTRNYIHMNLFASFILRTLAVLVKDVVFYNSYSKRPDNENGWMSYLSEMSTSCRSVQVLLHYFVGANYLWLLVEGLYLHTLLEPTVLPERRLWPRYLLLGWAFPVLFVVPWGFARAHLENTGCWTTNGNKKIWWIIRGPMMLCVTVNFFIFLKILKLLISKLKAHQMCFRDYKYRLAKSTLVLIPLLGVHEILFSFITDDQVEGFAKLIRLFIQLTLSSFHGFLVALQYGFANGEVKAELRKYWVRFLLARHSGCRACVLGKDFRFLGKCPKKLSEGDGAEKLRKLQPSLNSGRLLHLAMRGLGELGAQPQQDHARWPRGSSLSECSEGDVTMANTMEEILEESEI
How it was run: as §1

mouse GLP2 receptor = molecular target: T3, mouse GLP2 receptor (Mus musculus, UniProt Q5IXF8); test: cAMP accumulation assay, functional agonism of mouse GLP2 receptor
T3 construct: expressed in transfected cells; host or cells: HEK cells, transient transfection with GeneJuice
T3 sequence (Q5IXF8 1-512): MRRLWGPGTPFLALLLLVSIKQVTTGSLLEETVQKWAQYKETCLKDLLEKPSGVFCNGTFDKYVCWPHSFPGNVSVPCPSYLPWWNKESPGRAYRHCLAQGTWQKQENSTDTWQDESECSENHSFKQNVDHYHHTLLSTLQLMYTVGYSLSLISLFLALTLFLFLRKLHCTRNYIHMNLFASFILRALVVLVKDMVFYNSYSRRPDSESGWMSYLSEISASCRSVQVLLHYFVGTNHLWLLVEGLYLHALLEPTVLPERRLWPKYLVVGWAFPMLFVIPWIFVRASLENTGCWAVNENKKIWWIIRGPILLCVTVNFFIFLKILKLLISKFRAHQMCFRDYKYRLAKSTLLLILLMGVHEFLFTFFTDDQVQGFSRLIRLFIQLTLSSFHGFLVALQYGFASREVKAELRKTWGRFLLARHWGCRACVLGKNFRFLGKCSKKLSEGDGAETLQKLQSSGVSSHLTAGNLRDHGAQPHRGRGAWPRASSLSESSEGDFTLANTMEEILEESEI
Procedure: CAMP production upon agonist stimulation of mouse GLP2 or GLP1 receptors was assessed utilizing HiRange cAMP kit (Cisbio). In brief, HEK cells were transiently transfected for 24 hours with cDNA using GeneJuice Transfection reagent (EMD Millipore) and frozen at −80° C. for later use in the assay. On the day, various concentrations of compounds were dispensed using ECHO-555 (LabCyte) to a total volume of 100 nl into a low volume 384-well Proxi plate (Perkin Elmer) followed by addition of 10 μl of cell suspension delivering 8000 cells per well. Cells were prepared in the assay buffer (HBSS (Lonza) supplemented with 0.5 mM IBMX (Tocris)). After 45 min incubation at 37° C., the reaction was stopped by addition of the HTRF detection reagents in the lysis buffer provided in the kit. Following 1-hour incubation at RT, plates were read on Pherastar FS (BMG Labtech, Inc.) using standard HTRF settings. Dotmatics Studies software was used for calculation of pEC50 values by fitting data to a four-parameter concentration response curve.

[1] = HEK293, HEK cells transiently transfected with mouse GLP2 receptor, HTRF cAMP, read-out: Mouse GLP-2R agonist cAMP Emax
[2] = HEK cells transiently transfected with mouse GLP2 receptor, HTRF cAMP, read-out: Mouse GLP-2R agonist cAMP pEC50 (converted)

| Emax (human GLP1 receptor) [%] | EC50 (human GLP1 receptor) [nM] | Emax (human GLP2 receptor) [%] | EC50 (human GLP2 receptor) [nM] | Emax (mouse GLP2 receptor; [1]) [%] | EC50 (mouse GLP2 receptor; [2]) [nM] | SMILES | EC50 (mouse GLP2 receptor) [nM] | Emax (mouse GLP2 receptor; HEK293, read-out: Mouse GLP-2R agonist cAMP Emax) [%] |
| --- | --- | --- | --- | --- | --- | --- | --- | --- |
| 95 | 0.631 | 102 | 0.0398 | 81.9 | 6.31 | CCCC[C@H](NC(=O)[C@H](CCC(=O)O)NC(=O)[C@@H]1CCCCNC(=O)CC[C@H](NC(=O)[C@H](CC(=O)O)NC(=O)C(C)(C)NC(=O)[C@@H](N)Cc2c[nH]cn2)C(=O)N[C@@H](CO)C(=O)N[C@@H](Cc2ccccc2)C(=O)N[C@@H](CO)C(=O)N1)C(=O)N[C@H](Cc1ccccc1)C(=O)N[C@H]1CCC(=O)NCCCC[C@@H](C(=O)N[C@H]2CCCCNC(=O)C[C@@H](C(=O)N[C@@H](Cc3ccccc3)C(=O)N[C@H](C(=O)N[C@H]3CCC(=O)NCCCC[C@@H](C(=O)N[C@H]4CCCCNC(=O)CC[C@@H](C(N)=O)NC(=O)[C@H]([C@@H](C)O)NC(=O)[C@H]([C@@H](C)CC)NC(=O)[C@H](CCCCN)NC4=O)NC(=O)[C@H]([C@@H](C)CC)NC(=O)[C@H](CC(C)C)NC(=O)[C@H](Cc4c[nH]c5ccccc45)NC3=O)[C@@H](C)CC)NC(=O)[C@H](CCCCN)NC(=O)[C@H](C)NC(=O)[C@H](C)NC2=O)NC(=O)[C@H](CC(=O)O)NC(=O)[C@H](CC(C)C)NC(=O)[C@H]([C@@H](C)CC)NC1=O [Example 75] (H-H[Aib]DESFSKE[Nle][dF]EILDKKAAKDFIEWLIKKKITE-NH2; lactam 4-8, 12-16, 17-21, 24-28, 29-33 (inferred); C-terminus assumed) | – | – |
| 97.1 | 0.501 | 102 | 0.0631 | 102 | 3.16 | CCCC[C@@H]1NC(=O)[C@H](CCC(=O)O)NC(=O)[C@H](CC(=O)O)NC(=O)[C@@H](NC(=O)[C@H](Cc2ccccc2)NC(=O)[C@H](CO)NC(=O)CNC(=O)[C@H](CC(=O)O)NC(=O)C(C)(C)NC(=O)[C@@H](N)Cc2c[nH]cn2)CCC(=O)NCCCC[C@@H](C(=O)N[C@H]2CCC(=O)NCCCC[C@@H](C(=O)N[C@H]3CCCCNC(=O)C[C@@H](C(=O)N[C@@H](Cc4ccccc4)C(=O)N[C@H](C(=O)N[C@H]4CCC(=O)NCCCC[C@@H](C(=O)N[C@H]5CCCCNC(=O)CC[C@@H](C(N)=O)NC(=O)[C@H]([C@@H](C)O)NC(=O)[C@H]([C@@H](C)CC)NC(=O)[C@H](CCCCN)NC5=O)NC(=O)[C@H]([C@@H](C)CC)NC(=O)[C@H](CC(C)C)NC(=O)[C@H](Cc5c[nH]c6ccccc56)NC4=O)[C@@H](C)CC)NC(=O)[C@H](CCCCN)NC(=O)[C@H](C)NC(=O)[C@H](C)NC3=O)NC(=O)[C@H](CC(=O)O)NC(=O)[C@H](CC(C)C)NC(=O)[C@H]([C@@H](C)CC)NC2=O)NC1=O [Example 77] (H-H[Aib]DGSFEDE[Nle]KEILDKKAAKDFIEWLIKKKITE-NH2; lactam 7-11, 12-16, 17-21, 24-28, 29-33; N-terminus and C-terminus assumed) | – | – |
| 95.5 | 0.251 | 103 | 0.0251 | 83.1 | 2 | CCCC[C@H](NC(=O)[C@H](CCC(=O)O)NC(=O)[C@@H]1CCCCNC(=O)CC[C@H](NC(=O)[C@H](Cc2nn[nH]n2)NC(=O)C(C)(C)C(=O)NCCc2c[nH]cn2)C(=O)N[C@@H](CO)C(=O)N[C@@H](Cc2ccccc2)C(=O)N[C@@H](CO)C(=O)N1)C(=O)N[C@H](Cc1ccccc1)C(=O)N[C@H]1CCC(=O)NCCCC[C@@H](C(=O)N[C@H]2CCC(=O)NCCCC[C@@H](C(=O)N[C@@H](CC(=O)O)C(=O)N[C@@H](Cc3ccccc3)C(=O)N[C@H](C(=O)N[C@H]3CCC(=O)NCCCC[C@@H](C(=O)N[C@H]4CCCCNC(=O)CC[C@@H](C(N)=O)NC(=O)[C@H]([C@@H](C)O)NC(=O)[C@H]([C@@H](C)CC)NC(=O)[C@H](CCCCN)NC4=O)NC(=O)[C@H]([C@@H](C)CC)NC(=O)[C@H](CC(C)C)NC(=O)[C@H](Cc4c[nH]c5ccccc45)NC3=O)[C@@H](C)CC)NC(=O)[C@H](C)NC(=O)[C@H](C)NC2=O)NC(=O)[C@H](CC(=O)O)NC(=O)[C@H](CC(C)C)NC(=O)[C@H]([C@@H](C)CC)NC1=O [Example 78] | – | – |
| 97.3 | 0.251 | 103 | 0.0316 | 74.2 | 3.16 | CCCC[C@H](NC(=O)[C@H](CCC(=O)O)NC(=O)[C@@H]1CCCCNC(=O)CC[C@H](NC(=O)[C@H](Cc2nn[nH]n2)NC(=O)C(C)(C)C(=O)NCCc2c[nH]cn2)C(=O)N[C@@H](CO)C(=O)N[C@@H](Cc2ccccc2)C(=O)N[C@@H](CO)C(=O)N1)C(=O)N[C@H](Cc1ccccc1)C(=O)N[C@H]1CCC(=O)NCCCC[C@@H](C(=O)N[C@H]2CCCCNC(=O)C[C@@H](C(=O)N[C@@H](Cc3ccccc3)C(=O)N[C@H](C(=O)N[C@H]3CCC(=O)NCCCC[C@@H](C(=O)N[C@H]4CCCCNC(=O)CC[C@@H](C(N)=O)NC(=O)[C@H]([C@@H](C)O)NC(=O)[C@H]([C@@H](C)CC)NC(=O)[C@H](CCCCN)NC4=O)NC(=O)[C@H]([C@@H](C)CC)NC(=O)[C@H](CC(C)C)NC(=O)[C@H](Cc4c[nH]c5ccccc45)NC3=O)[C@@H](C)CC)NC(=O)[C@H](CCCCN)NC(=O)[C@H](C)NC(=O)[C@H](C)NC2=O)NC(=O)[C@H](CC(=O)O)NC(=O)[C@H](CC(C)C)NC(=O)[C@H]([C@@H](C)CC)NC1=O [Example 79] ({Malonyl(2,2-Me2,histaminyl)}-[Ala(1H-tetrazol-5-yl)]ESFSKE[Nle][dF]EILDKKAAKDFIEWLIKKKITE-NH2; lactam 2-6, 10-14, 15-19, 22-26, 27-31 (inferred); C-terminus assumed) | – | – |

| SMILES | Emax (human GLP1 receptor) [%] | EC50 (human GLP1 receptor) [nM] | Emax (human GLP2 receptor) [%] | EC50 (human GLP2 receptor) [nM] | Emax (mouse GLP2 receptor; [1]) [%] | EC50 (mouse GLP2 receptor; [2]) [nM] | EC50 (mouse GLP2 receptor) [nM] | Emax (mouse GLP2 receptor; HEK293, read-out: Mouse GLP-2R agonist cAMP Emax) [%] |
| --- | --- | --- | --- | --- | --- | --- | --- | --- |
| CCCC[C@@H]1NC(=O)[C@H](CCC(=O)O)NC(=O)[C@H](CC(=O)O)NC(=O)[C@@H](NC(=O)[C@H](Cc2ccccc2)NC(=O)[C@H](CO)NC(=O)CNC(=O)[C@H](CC(=O)O)NC(=O)C(C)(C)NC(=O)[C@@H](N)Cc2c[nH]cn2)CCC(=O)NCCCC[C@@H](C(=O)N[C@H]2CCC(=O)NCCCC[C@@H](C(=O)N[C@H]3CCC(=O)NCCCC[C@@H](C(=O)N[C@@H](CC(=O)O)C(=O)N[C@@H](Cc4ccccc4)C(=O)N[C@H](C(=O)N[C@H]4CCC(=O)NCCCC[C@@H](C(=O)N[C@H]5CCCCNC(=O)CC[C@@H](C(N)=O)NC(=O)[C@H]([C@@H](C)O)NC(=O)[C@H]([C@@H](C)CC)NC(=O)[C@H](CCCCN)NC5=O)NC(=O)[C@H]([C@@H](C)CC)NC(=O)[C@H](CC(C)C)NC(=O)[C@H](Cc5c[nH]c6ccccc56)NC4=O)[C@@H](C)CC)NC(=O)[C@H](C)NC(=O)[C@H](C)NC3=O)NC(=O)[C@H](CC(=O)O)NC(=O)[C@H](CC(C)C)NC(=O)[C@H]([C@@H](C)CC)NC2=O)NC1=O [Example 76] (H-H[Aib]DGSFEDE[Nle]KEILDKEAAKDFIEWLIKKKITE-NH2; lactam 7-11, 12-16, 17-20, 24-28, 29-33 (inferred)) | 94.9 | 1 | 102 | 0.0126 | – | – | 1.26 | 102 |
